Results published in patent US20060019329A1, “Method of screening for protein inhibitors and activators” (priority 1988, published 2006).

Tests used:
[1] = target: high affinity phorbol-ester binding sites (PKC); conditions: read-out: affinity constant (Kd) of phorbol ester binding; control cell line R6-C1; intact cells; Scatchard; approximately the same in both cell lines
Procedure: Cells were plated at 1×10^5 per 4 cm well on day 1, the medium was changed on day 2 and the cells then assayed on day 3. […] The plates were washed 3× with 4 ml ice-cold PBS. The cells were solubilized in 1 ml 1% SDS/10 mM DTT for 2 hrs at 37° C. The lysate was transferred to a scintillation vial and counted.

[2] = tested on: R6-PKC3 cells (Rat 6 fibroblasts overproducing PKCbeta1); assay: Growth in soft agar (anchorage independence), R6-PKC3; type: cell-based
Procedure: (§1) Cells were seeded at a density of 10^4/plate in a series of 60 mm plates, in 5 ml DMEM plus 10% CS. Twenty-four hours later, cells in triplicate plates were trypsinized and counted. This point was designated “day 0.” The remaining cultures were then grown in the respective medium (i.e. plus or minus 100 ng/ml TPA) with fresh medium changes twice per week. Cell counts per plate were then determined on triplicate plates during the remainder of the growth curve (FIG. 3). The results obtained were analyzed for exponential doubling time and saturation density (Table 2). To assess growth in soft agar (anchorage independence), 2×10^4 cells were suspended in 2 ml of 0.3% Bacto agar (Difco Laboratories, Detroit, Mich.) in DMEM containing 20% fetal calf serum (FCS) and overlayed above a layer of 5 ml of 0.5% agar in the same medium, on 60 mm petri dishes. The cells were then overlaid with DMEM plus 20% FCS every 4 days. At the end of 30 days, colonies were stained with the vital stain 2-(p-iodophenyl)-3-(p-nitrophenyl)-5-phenyltetrazolinium chloride hydrate (INT) (Sigma Chemical Co., St. Louis, Mo.) for 48 hours at 37° C., in an incubator with 5% CO2 (Schaeffer and Friend, 1976), and the number of colonies counted under low power on an inverted phase microscope. The data are expressed as “cloning efficiency”, i.e. number of colonies greater than 0.05 mm per plate X 100 divided by the number of cells originally seeded per plate.
(§2) I also assayed these cell lines for their ability to form colonies in soft agar, since with rodent cells the acquisition of anchorage-independent growth often correlates with tumorigenicity (Freedman and Shin, 1974).

[3] = tested on: R6-PKC5 cells (Rat 6 fibroblasts overproducing PKCbeta1); assay: Growth in soft agar (anchorage independence), R6-PKC5; type: cell-based
Procedure: as §1, §2

[4] = tested on: cell lines overproducing PKC; assay: Growth in agar of cell lines overproducing PKC (further screening of activators and inhibitors); type: cell-based, rat
Procedure: as §1
Additional compounds tested included the tumor promoters teleocidin, aplysiatoxin, and mezerein, all of which are known activators of PKC (O'Brian, et al., CSH, 1985).
Inhibition of the growth of the R6-PKC3 cells in agar in the presence of tamoxifen provided critical evidence that tamoxifen could inhibit PKC-mediated stimulation of cellular growth.

[5] = tested on: R6-C1 control cells (Rat 6 fibroblasts with pMV7 alone); assay: Growth in soft agar (anchorage independence), control R6-C1; type: cell-based
Procedure: (§3) Cells were seeded at a density of 10^4/plate in a series of 60 mm plates, in 5 ml DMEM plus 10% CS. Twenty-four hours later, cells in triplicate plates were trypsinized and counted. This point was designated “day 0.” The remaining cultures were then grown in the respective medium (i.e. plus or minus 100 ng/ml TPA) with fresh medium changes twice per week. Cell counts per plate were then determined on triplicate plates during the remainder of the growth curve (FIG. 3). The results obtained were analyzed for exponential doubling time and saturation density (Table 2). To assess growth in soft agar (anchorage independence), 2×10^4 cells were suspended in 2 ml of 0.3% Bacto agar (Difco Laboratories, Detroit, Mich.) in DMEM containing 20% fetal calf serum (FCS) and overlayed above a layer of 5 ml of 0.5% agar in the same medium, on 60 mm petri dishes. […] At the end of 30 days, colonies were stained with the vital stain 2-(p-iodophenyl)-3-(p-nitrophenyl)-5-phenyltetrazolinium chloride hydrate (INT) (Sigma Chemical Co., St. Louis, Mo.) for 48 hours at 37° C., in an incubator with 5% CO2 (Schaeffer and Friend, 1976), and the number of colonies counted under low power on an inverted phase microscope. The data are expressed as “cloning efficiency”, i.e. number of colonies greater than 0.05 mm per plate X 100 divided by the number of cells originally seeded per plate. […]

R6-C1 control cells [6] = assay: Morphologic response to phorbol ester treatment, control R6-C1; type: cell-based, rat
Procedure: (§4) FIG. 4. Morphologic Responses of the Cell Lines to Phorbol Ester Treatment. Nearly confluent cultures of the three indicated cell lines were exposed to 100 ng/ml TPA in 0.1% dimethylsulfoxide (DMSO) solvent (“+TPA”) or 0.1% DMSO alone (“−TPA”), in DMEM plus 10% CS. Photographs were taken 24 hours later (Panels A and D) and 48 hours later (Panels B and E). Fresh medium plus or minus TPA was then added and photographs were then taken an additional 24 hours later (Panels C and F). (Magnification: 100×).
(§5) All of the cell lines were then exposed to a second, fresh dose of TPA (100 ng/ml) and examined 24 hours later (FIG. 4, Panel F), i.e., 72 hours after the first dose of TPA.

[7] = tested on: FDC-P1 cells overproducing PKC beta1; assay: Morphologic response of FDC-P1 cells overproducing PKCbeta1 to PKC activators; type: cell-based; conditions: 100 nM TPA, after 12 hours
Procedure: Several cell lines were plated at 3×10E4 cells/ml and treated with 100 nM TPA. After 12 hours, representative fields were photographed. […] The latter clumps are easily visualized with standard cell stains such as Giemsa, and stain much darker than the corresponding control cells under these conditions.

R6-PKC5 cells [8] = assay: Growth in monolayer culture, R6-PKC5; type: cell-based, rat; conditions: R6-PKC5 (test), + TPA 100 ng/ml
Procedure: as §3

R6-PKC3 cells [9] = assay: Growth in monolayer culture, R6-PKC3; type: cell-based, rat
Procedure: as §1
It was also of interest to determine the growth rates of these cells in monolayer culture. Detailed growth curves were performed on R6-C1, R6-PKC3 and R6-PKC5 cells in 10% calf serum and DMEM medium, in the absence and presence of 100 ng/ml TPA.

R6-PKC3 cells [10] = assay: Morphologic response to phorbol ester treatment, R6-PKC3; type: cell-based, rat
Procedure: as §4, §5

R6-PKC5 cells [11] = assay: Morphologic response to phorbol ester treatment, R6-PKC5; type: cell-based, rat
Procedure: as §4, §5

R6-C1 control cells [12] = assay: Growth in monolayer culture, control R6-C1; type: cell-based, rat; conditions: R6C1 (control), + TPA 100 ng/ml
Procedure: as §3

PKC = conditions: cell-free assay (O'Brian, et al, Cancer Res., 1985); cited from earlier work
[13] = R6-PKC3 (test), + TPA 100 ng/ml, 0.3% agar
[14] = 24 hours after second 100 ng/ml dose (72 hours after first)
[15] = initial exponential phase, DMEM plus 10% CS
[16] = R6-PKC5 (test), + TPA 100 ng/ml, 0.3% agar

## CCCC(=O)O[C@@H]1[C@@H](C)[C@@]2(O)[C@@H](C=C(CO)C[C@]3(O)C(=O)C(C)=C[C@@H]23)[C@@H]2C(C)(C)[C@]12OC(=O)CCC [3H-PDBu]
[1]
  Kd: 16 nM

## CC1CNCCN1S(=O)(=O)c1cccc2cnccc12 (stereo not shown) [H-7, 1-(5-Isoquinolinesulfonyl)-2-methyl-piperazine]
[2]; R6-PKC3, inhibitor 2 μM
  Effic. of Growth In Agar (%): 25%
[2]; R6-PKC3, inhibitor 5 μM
  Effic. of Growth In Agar (%): 22%
[2]; R6-PKC3, inhibitor 10 μM
  Effic. of Growth In Agar (%): 17%
[2]; R6-PKC3, inhibitor 50 μM
  Effic. of Growth In Agar (%): 4%
[2]; R6-PKC3, inhibitor 100 μM
  Effic. of Growth In Agar (%): 0%
[3]; R6-PKC5, inhibitor 2 μM
  Effic. of Growth In Agar (%): 21%
[3]; R6-PKC5, inhibitor 5 μM
  Effic. of Growth In Agar (%): 16%
[3]; R6-PKC5, inhibitor 10 μM
  Effic. of Growth In Agar (%): 4%
[3]; R6-PKC5, inhibitor 50 μM
  Effic. of Growth In Agar (%): 1%
[3]; R6-PKC5, inhibitor 100 μM
  Effic. of Growth In Agar (%): 0%
[4]; PKC-overproducing cell lines, known activators or inhibitor of PKC
  modulation of the growth of the cells: modulated the growth of the cells in the expected manner

## CCCCCCCCCCCCCC(=O)O[C@@H]1[C@@H](C)[C@@]2(O)[C@@H](C=C(CO)C[C@]3(O)C(=O)C(C)=C[C@@H]23)[C@@H]2C(C)(C)[C@]12OC(C)=O [TPA, 12-O-tetradecanoylphorbol-13-acetate]
[5]; R6-C1, TPA 100 ng/ml in agar medium
  growth in agar: still failed to grow in agar
[5]; R6C1 (control), + TPA 100 ng/ml, 0.3% agar
  Agar Effic.: 0%
[2]; [13]
  Agar Colony Size: 0.15-0.35 mm
  Agar Effic.: 29.7%
[2]; R6-PKC3, TPA 100 ng/ml in agar medium
  colony sizes and cloning efficiencies in agar: enhanced
R6-C1 control cells [6]; 24 hours after 100 ng/ml TPA
  morphology after TPA: more elongated and dendritic cells and a criss-cross pattern
R6-C1 control cells [6]; [14]
  morphologic response to second dose of TPA: failed to respond
R6-C1 control cells [6]; 48 hours after 100 ng/ml TPA
  morphology after TPA: returned to its normal appearance
[7]
  morphologic changes: profound morphologic changes
R6-PKC5 cells [8]; cells per 6 cm plate on day 11
  Monolayer Saturat. Density: 7.0 × 10^6
R6-PKC5 cells [8]; [15]
  Monolayer Doubling Time: 22.9 h
R6-PKC3 cells [9]; R6-PKC3 (test), + TPA 100 ng/ml, cells per 6 cm plate on day 11
  Monolayer Saturat. Density: 10.0 × 10^6
R6-PKC3 cells [9]; R6-PKC3 (test), + TPA 100 ng/ml, initial exponential phase, DMEM plus 10% CS
  Monolayer Doubling Time: 21.5 h
R6-PKC3 cells [9]; R6-PKC3, monolayer, longer period in presence of TPA, cells detach from plate
  cell density when maintained in TPA for a longer period: showed a decline in cell density
[3]; [16]
  Agar Colony Size: 0.10-0.15 mm
  Agar Effic.: 34.7%
[3]; R6-PKC5, TPA 100 ng/ml in agar medium
  colony sizes and cloning efficiencies in agar: enhanced
R6-PKC3 cells [10]; 24 hours after 100 ng/ml TPA
  morphology after TPA: very long cytoplasmic processes and numerous refractile cell bodies
R6-PKC3 cells [10]; [14]
  morphologic response to second dose of TPA: continued to display their altered morphology as well as an increase in cell density
R6-PKC3 cells [10]; 48 hours after 100 ng/ml TPA
  morphology after TPA: continued to display an altered morphology
R6-PKC5 cells [11]; 24 hours after 100 ng/ml TPA
  morphologic changes after TPA compared with control: much more dramatic
R6-PKC5 cells [11]; [14]
  morphologic response to second dose of TPA: only slight changes in morphology
R6-PKC5 cells [11]; 48 hours after 100 ng/ml TPA, to a lesser extent than R6-PKC3
  morphology after TPA: continued to display an altered morphology
R6-C1 control cells [12]; cells per 6 cm plate on day 11
  Monolayer Saturat. Density: 4.2 × 10^6
R6-C1 control cells [12]; [15]
  Monolayer Doubling Time: 24.6 h

## CC/C(=C(\c1ccccc1)c1ccc(OCCN(C)C)cc1)c1ccccc1 [Tamoxifen, tamoxifen]
[2]; R6-PKC3, inhibitor 5 μM
  Effic. of Growth In Agar (%): 27%
[2]; R6-PKC3, inhibitor 20 μM
  Effic. of Growth In Agar (%): 22%
[2]; R6-PKC3, inhibitor 50 μM
  Effic. of Growth In Agar (%): 15%
[2]; R6-PKC3, inhibitor 100 μM
  Effic. of Growth In Agar (%): 6%
[2]; R6-PKC3, inhibitor 200 μM
  Effic. of Growth In Agar (%): 0%
PKC
  effect on PKC enzyme activity: inhibits PKC enzyme activity
[3]; R6-PKC5, inhibitor 5 μM
  Effic. of Growth In Agar (%): 19%
[3]; R6-PKC5, inhibitor 20 μM
  Effic. of Growth In Agar (%): 17%
[3]; R6-PKC5, inhibitor 50 μM
  Effic. of Growth In Agar (%): 8%
[3]; R6-PKC5, inhibitor 100 μM
  Effic. of Growth In Agar (%): 0%
[3]; R6-PKC5, inhibitor 200 μM
  Effic. of Growth In Agar (%): 0%
[4]; all of the cell lines overproducing PKC
  inhibition of growth in agar: completely inhibiting the growth in agar
